Measurements published in patent US9492545B2, “Compositions of statins and omega-3 fatty acids” (Omthera Pharmaceuticals, Inc., priority 2012, dated 2016).

Experiments:
[1] = Stability testing of statins dissolved in PUFA free acid solvent system at 25° C., 60% RH (Example 5); format: physicochemical
Experimental: The compositions were then mixed until full dissolution was observed, using a magnetic stir bar and sonication for 30-60 second intervals, taking care to maintain a nitrogen headspace over the solution throughout processing. […] Vials were covered with foil to protect from light and stored at 25° C., 60% RH. One vial of each of the three compositions was retrieved at each timepoint for testing. Procedures as listed in the USP Monograph for Omega-3-Acid Ethyl Ester Capsules were followed for measuring quantities of acid value, peroxide value, and absorbance for fats and fixed oils.

[2] = Solubility of statins in PUFA free acid solvent system, HPLC of supernatant (Example 4); format: physicochemical; details: 2 mL PUFA free acid solvent; after addition of about 313 mg; before overnight standing
Experimental: For this study, ten vials were prepared such that 5 vials contained 2 mL of Lovaza oil and 5 vials contained 2 mL of PUFA free acid solvent system. About 20 mg of each statin were added to one Lovaza oil vial and to one PUFA free acid solvent system vial. Vials containing the samples were blanketed with nitrogen, then sealed. The vials were then sonicated for 1 hour or until contents appeared clear. After sonication, vials which remained clear received additional 20 mg aliquots of their respective statin and were again blanketed with nitrogen. […] The samples were centrifuged and the supernatant was assayed for the respective statin by HPLC.

[3] = Solubility of statins in various pH buffers (Example 1)
[4] = Solubility of statins in omega-3 ethyl ester solvent system, Lovaza fill (Example 3); details: sonicated 1 hour, overnight, supernatant by HPLC

Row | Compound | Statin in oil, content ([1]; t = 0) [mg/g] | Statin in oil, percent of total ([1]; t = 0) [%] | Statin in oil, content ([1]; t = 1 week) [mg/g] | Statin in oil, percent of total ([1]; t = 1 week) [%] | Statin in oil, content ([1]; t = 2 week) [mg/g] | Statin in oil, percent of total ([1]; t = 2 week) [%] | Appearance of vial after repeated statin additions and sonication [2] | Solubility ([3]; acid phthalate buffer pH 4.0, T = 1 Week) | pH of maximal aqueous solubility ([3]; across the tested pH buffers) | Aqueous solubility (in words) ([3]; overall across pH buffers, rosuvastatin at time zero) | Initial solubility in PUFA ethyl ester solvent system, Concentration [4] [µg/mL]
1 | CC(C)c1c(C(=O)Nc2ccccc2)c(-c2ccccc2)c(-c2ccc(F)cc2)n1CC[C@@H](O)C[C@@H](O)CC(=O)[O-].CC(C)c1c(C(=O)Nc2ccccc2)c(-c2ccccc2)c(-c2ccc(F)cc2)n1CC[C@@H](O)C[C@@H](O)CC(=O)[O-].[Ca+2] [Atorvastatin, Atorvastatin Calcium] | 8.738 | 100 | 8.275 | 100 | 7.839 | 100 | – | – | – | – | –
2 | CC[C@H](C)C(=O)O[C@H]1C[C@H](O)C=C2C=C[C@H](C)[C@H](CC[C@@H](O)C[C@@H](O)CC(=O)O)[C@H]21 [Pravastatin Sodium] | – | – | – | – | – | – | still remained clear | – | – | – | –
3 | CC(C)c1nc(N(C)S(C)(=O)=O)nc(-c2ccc(F)cc2)c1/C=C/[C@@H](O)C[C@@H](O)CC(=O)[O-].CC(C)c1nc(N(C)S(C)(=O)=O)nc(-c2ccc(F)cc2)c1/C=C/[C@@H](O)C[C@@H](O)CC(=O)[O-].[Ca+2] [Rosuvastatin, Rosuvastatin Calcium] | 6.481 | 100 | 6.416 | 100 | 6.505 | 100 | – | 0.002 | ~7.0 | significant aqueous solubility | 1
